Patent publication US20260263613A1, “USE OF DRUG C[…]-CD20 ANTIBODY-DRUG CONJUGATE IN PREPARATION OF DRUG FOR TREATING NHL” (priority 2023, published 2026)
“And” between values parts separate entries of the source, which are not always exact repeats. Equal entries are not always repeated.

Experiments:
[1] = Body weight and drug-related deaths of WSU-DLCL2 tumor-bearing animals; assay type: in vivo, SCID mouse
Method: (§1) Under sterile conditions, each SCID mouse was inoculated with 0.1 mL of WSU-DLCL2 cell suspension at a concentration of 4×10^7/mL subcutaneously on the right back. When the mean tumor volume (TV) reached ~150 mm^3, animals were randomized into 4 groups according to their TV: Group 1 (Vehicle), Group 2 (R-CHOP), Group 3 (TRS005) and Group 4 (TRS005-CHP (T-CHP)), with 6 mice in each group, so that the difference in TV of mice in each group was <10% of the mean. The day of grouping was recorded as Day 0, and the administration was started according to animal body weight (BW).
(§2) The BW and TV of animals were measured twice a week during the study. During the study, the clinical symptoms of animals were observed and recorded once a day. Clinical observations included general health status, abnormal BW and behavior of animals, and other treatment-related adverse reactions.
(§3) The animal body weight change (% BWC) is calculated as follows: (BWt−BW0)/BW0×100%, where BWt is the animal BW at each measurement and BW0 is the animal BW at grouping.
(§4) According to the Technical Guidelines for Nonclinical Study of Cytotoxic Anti-tumor Drugs (November 2006) issued by NMPA in China, it is considered effective if % T/CRTV≤40% and P<0.05 after statistical analysis. Drug doses are considered to be severely toxic when the number of animal deaths related to the drug exceeds 20%.

[2] = test system: human lymphoma OCI-LY19 cell xenograft tumors; experiment: Growth inhibition of human lymphoma OCI-LY19 cell xenograft tumors; assay type: in vivo, mouse
Method: Embodiment 4: Growth Inhibition of Human Lymphoma OCI-LY19 Cell Xenograft Tumors by TRS005 Alone and TRS005 in Combination with CHP Compared to R-CHOP Regimen Administration
(§5) The drug information is the same as in Embodiment 3. Under sterile conditions, each mouse was inoculated with 0.1 mL of OCI-LY19 cell suspension at a concentration of 2×10^6/mL subcutaneously on the right back. When the mean TV reached ~150 mm^3, animals were randomized into 4 groups according to their TV: Group 1 (Vehicle), Group 2 (R-CHOP), Group 3 (TRS005) and Group 4 (T-CHP), with 10 mice in each group, so that the difference in TV of mice in each group was <10% of the mean. The day of grouping was recorded as Day 0, and the administration was started according to animal BW.
(§6) The BW and TV of animals were measured twice a week during the study. During the study, the clinical symptoms of animals were observed and recorded once a day. Clinical observations included general health status, abnormal BW and behavior of animals, and other treatment-related adverse reactions. During the study, if an individual experimental animal meets any of the following conditions, the animal will be removed from the study group and euthanized. 1. The body weight loss (BWL) of animals was ≥20% compared with Day 0; 2. Animals had serious adverse reactions, such as blindness and paralysis; 3. TV was >2000 mm^3; 4. Open ulcers were formed on the tumor surface.
The calculation formula for TV is: ½×a×b^2, where a and b are the measured length and width of the tumor, respectively.
(§7) The tumor growth inhibition rate (% TGI) is calculated as follows: (1−TVT/TVC)×100%, where TVC is the mean TV of the negative control group, and TVT is the mean TV of the treatment group.
(§8) Relative Tumor Volume (RTV) is calculated as Vt/V0, where V0 is the TV at grouping and Vt is the TV at each measurement.
(§9) The calculation formula for relative tumor proliferation rate (% T/CRTV) is: • TRTV/CRTV×100%, where TRTV is the RTV of the treatment group and CRTV is the RTV of the negative control group.

[3] = test system: human lymphoma WSU-DLCL2 cell xenograft tumor; experiment: Inhibition of human lymphoma WSU-DLCL2 cell xenograft tumor growth; assay type: in vivo, SCID mouse
Method: Example 3: Inhibition of Human Lymphoma WSU-DLCL2 Cell Xenograft Tumor Growth by TRS005 Alone and TRS005 in Combination with CHP Compared to R-CHOP Regimen Administration Drug Information, Model Establishment, Grouping, and Administration
The TRS005 finished product is provided by Zhejiang Teruisi Pharmaceutical Inc., and other positive drugs are commercially available. Among them, MabThera, Cyclophosphamide, Doxorubicin, Vincristine, and Prednisone are prepared with normal saline as the solvent to corresponding concentrations and stored at 4° C. away from light. The TRS005 finished product is reconstituted with sterile water for injection (WFI), and a corresponding volume of normal saline is added to prepare the corresponding concentration. The TRS005 finished product is reconstituted and packaged with WFI and stored at −70° C.
as §1, §2, §7, §8, §9, §4

[4] = Body weight and drug-related deaths of OCI-LY19 tumor-bearing animals; assay type: in vivo, mouse
Method: as §5, §6, §3

## TRS005: anti-CD20 ADC; mAb is Rituximab or a biosimilar thereof, drug antibody ratio (DAR) 4.2±0.5
[1]; Day 0 (baseline)
  Body Weight of Mice (Mean ± SEM) Day 0: 20.12 ± 0.35 g
[1]; Day 35
  Body Weight of Mice (Mean ± SEM) Day 35: 20.78 ± 0.50 g
[1]; WSU-DLCL2 tumor-bearing mice
  % BWC Day 35 vs Day 0: 3.25%
  Body weight change Day 35 vs Day 0: 0.66 g
[1]; WSU-DLCL2 tumor-bearing mice, during the study
  Safety / drug-related toxicity in words: good safety
[1]; deaths/number of mice
  Number of Mice with Drug-related Deaths Day 35: 0/6
[2]; Day 0 (at grouping, before dosing), 10 mice/group
  Tumor Volume (Mean ± SEM) Day 0: 107.78 mm^3
[2]; Day 14
  % T/CRTV Day 14: 48.28%
  % TGI Day 14: 51.87%
[2]; Day 14, TRS005 1.5 mg/kg IV BIW × 3 w, regimens per Table 5, 1.5 mg/kg
  Tumor Volume (Mean ± SEM) Day 14: 905.30±129.66 mm^3 and 905.30 mm^3
[2]; Day 14, Vt/V0
  RTV Day 14: 8.29
[2]; Day 17
  Tumor Volume (Mean ± SEM) Day 17: 1182.02 mm^3
[2]; Day 21, remaining mice (Group 3 N = 9)
  Tumor Volume (Mean ± SEM) Day 21: 1764.32 mm^3
[2]; Day 24, remaining mice (Group 3 N = 6)
  Tumor Volume (Mean ± SEM) Day 24: 2274.64 mm^3
[2]; Day 28, remaining mice (Group 2 N = 3, Group 3 N = 1, Group 4 N = 9)
  Tumor Volume (Mean ± SEM) Day 28: 0.00 mm^3
[3]; WSU-DLCL2 xenograft (high CD20 expression), compared with the other regimens
  Anti-tumor efficacy in words: better efficacy than the R-CHOP regimen
[3]; WSU-DLCL2 xenograft, Day 0 (at grouping, before dosing), 6 mice/group
  Tumor Volume (Mean ± SEM) Day 0: 127.16 mm^3
[3]; WSU-DLCL2 xenograft, Day 35
  % T/CRTV Day 35: 17.81%
[3]; WSU-DLCL2 xenograft, Day 35, Vt/V0
  RTV Day 35: 2.44
[3]; WSU-DLCL2 xenograft, Day 35, TRS005 0.75 mg/kg IV BIW × 3 w, regimens per Table 2, 0.75 mg/kg
  Tumor Volume (Mean ± SEM) Day 35: 315.93±94.23 mm^3 and 315.93 mm^3
[3]; WSU-DLCL2 xenograft, Day 35, regimens per Table 2
  % TGI Day 35: 81.94%
[4]; Day 0 (baseline)
  Body Weight of Mice (Mean ± SEM) Day 0: 20.95 ± 0.36 g
[4]; Day 14
  Body Weight of Mice (Mean ± SEM) Day 14: 22.76 ± 0.45 g
[4]; OCI-LY19 tumor-bearing mice
  % BWC Day 14 vs Day 0: 8.96%
  Body weight change Day 14 vs Day 0 (in g): (1.81 g)
[4]; OCI-LY19 tumor-bearing mice, during the study
  Safety / drug-related toxicity in words: good safety
[4]; deaths/number of mice
  Number of Mice with Drug-related Deaths Day 14: 0/10
